According to the NIST ThermoML archive (doi:10.1021/je034036t):
± gives the expanded uncertainty stated by the source.

Conditions: Liquid, Pulse-echo method

COCCOCCOCCOC [2,5,8,11-tetraoxadodecane]
speed of sound [m/s]
Conditions | 293.15 K | 303.15 K | 313.15 K | 323.15 K | 333.15 K | 343.15 K | 353.15 K
100 kPa | 1361.9 ± 1.8 | 1323.2 ± 1.8 | 1285.1 ± 1.8 | 1247.7 ± 1.7 | 1210.9 ± 1.7 | 1174.6 ± 1.7 | 1138.7 ± 1.7
10000 kPa | 1403.1 ± 1.9 | 1366.5 ± 1.8 | 1330 ± 1.8 | 1294.6 ± 1.8 | 1259.5 ± 1.7 | 1225.1 ± 1.7 | 1191.5 ± 1.7
20000 kPa | 1442.5 ± 1.9 | 1407.2 ± 1.9 | 1372.2 ± 1.8 | 1338.5 ± 1.8 | 1304.8 ± 1.8 | 1272 ± 1.8 | 1240 ± 1.7
30000 kPa | 1479.3 ± 1.9 | 1445.2 ± 1.9 | 1411.8 ± 1.9 | 1379.1 ± 1.8 | 1346.9 ± 1.8 | 1315.6 ± 1.8 | 1284.6 ± 1.8
40000 kPa | 1514.7 ± 2 | 1481.6 ± 1.9 | 1448.8 ± 1.9 | 1417.3 ± 1.9 | 1386.3 ± 1.9 | 1356.2 ± 1.8 | 1326.2 ± 1.8
50000 kPa | 1547.8 ± 2 | 1515.7 ± 2 | 1484.1 ± 1.9 | 1453.6 ± 1.9 | 1423.4 ± 1.9 | 1394.1 ± 1.9 | 1365.6 ± 1.8
60000 kPa | 1579.5 ± 2 | 1548.2 ± 2 | 1517.5 ± 2 | 1487.9 ± 1.9 | 1458.8 ± 1.9 | 1430.3 ± 1.9 | 1402.4 ± 1.9
70000 kPa | 1610 ± 2.1 | 1579.4 ± 2 | 1549.7 ± 2 | 1520.7 ± 2 | 1492.1 ± 2 | 1464.6 ± 1.9 | 1437.6 ± 1.9
80000 kPa | 1639.3 ± 2.1 | 1609.3 ± 2.1 | 1580.3 ± 2 | 1552 ± 2 | 1524.3 ± 2 | 1497.2 ± 2 | 1470.9 ± 1.9
90000 kPa | 1667.4 ± 2.1 | 1638.2 ± 2.1 | 1609.9 ± 2.1 | 1581.9 ± 2 | 1554.8 ± 2 | 1528.4 ± 2 | 1502.6 ± 2
100000 kPa | 1694.6 ± 2.1 | 1665.9 ± 2.1 | 1638.1 ± 2.1 | 1610.8 ± 2.1 | 1584.3 ± 2 | 1558.5 ± 2 | 1533.4 ± 2
